Measured values reported in patent US20100278875A1, “PROSTAGLANDIN E2 (PGE2) AS AN ADJUVANT IN MONOCLONAL ANTIBODY GENERATION” (priority 2006, published 2010).

Key:
[1] = test system: ovalbumin (OVA); test: Anti-OVA antibody titers in Balb/c mice immunized with OVA in the presence or absence of PGE2; type: in vivo
Experimental: (§1) To generate antibody against ovalbumin (OVA), Balb/c mice were immunized with 25 ug of OVA emulsified in adjuvant. To test the effect of PGE2, the mice were injected with 1 nmol PGE2 intraperitoneally (i.p.) 3 hours prior to immunization, and again at 24 and 48 hours post immunization. For the control group, the mice were injected (i.p.) with an equal volume of PBS 3 hours prior to immunization. The mice were boosted with 25 ug OVA on Day 14 (i.p.) and Day 28 (subcutaneously). Anti-OVA titers were determined on Day 27 and Day 35.
(§2) To assess the effect of PGE2 on generating antibodies against difficult targets, a nominal immunogen (AgX) known to be difficult to raise an antibody response was used. Briefly, Balb/c mice were immunized following the same schedule outlined above with either 25 ug of OVA or AgX and titered on Day 27 following 2 i.p. injections. […] Therefore, PGE2 enhances immune responses in Balb/c mice and may be used to shorten immunization time lines.

[2] = test system: nominal immunogen (AgX); test: Antibody titers in Balb/c mice against a nominal immunogen (AgX) in the presence or absence of PGE2; type: in vivo; conditions: following 2 injections, versus PBS
Experimental: as §1, §2
Given the difficult nature of this immunogen to generate antibodies against, this is a significant increase. Therefore, PGE2 can be used in Balb/c mice to enhance immune responses not only to strong immunogens, but also to difficult/nominal immunogens.

CCCCC[C@H](O)/C=C/[C@H]1[C@H](O)CC(=O)[C@@H]1C/C=C\CCCC(=O)O [PGE2, Prostaglandin E2]
effect on anti-OVA titers (in words) ([1]; Table 1 experiment, Day 27 and Day 35): significantly enhanced anti-OVA titers
effect on anti-OVA titers (in words) ([1]; Table 2 experiment, following only 2 immunogen injections): enhanced anti-OVA titers
increase of anti-AgX titers [2]: 2-3 fold
